Positions of bridges follow the written chain, without caps; N, C: chain ends. Non-standard residues stand in square brackets, D forms with d. Residues, ends and D or L forms follow the SMILES beside them. Phe(4-tBu) = CC(C)(C)c1ccc(C[C@H](N)C(=O)O)cc1; Igl = N[C@H](C(=O)O)C1Cc2ccccc2C1; hPhe = N[C@@H](CCc1ccccc1)C(=O)O; R8 = C=CCCCCCC[C@@](C)(N)C(=O)O; Cit = NC(=O)NCCC[C@H](N)C(=O)O; Chg = N[C@H](C(=O)O)C1CCCCC1; S5 = C=CCCC[C@](C)(N)C(=O)O
Columns and labels:
Mcl-1 = Mcl-1 (Homo sapiens, UniProt Q07820); test: Ki determination for Mcl-1 (BCL-2 family binding spectrum); conditions: read-out: Ki MCL-1
Summary of the method: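 Competitive fluorescence polarization assay in which compounds displace a fluoresceinated peptidomimetic macrocycle tracer from Mcl-1. Affinity constants were obtained by nonlinear regression.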

Bcl-2 = Bcl-2 (Homo sapiens, UniProt P10415); test: Ki determination for Bcl-2 (BCL-2 family binding spectrum); conditions: read-out: Ki BCL-2
Text: To assess the binding and affinity of compounds that antagonize the interaction between a peptide and an acceptor protein, a fluorescence polarization assay (FPA) utilizing a fluoresceinated peptidomimetic macrocycle derived from a peptidomimetic precursor sequence is used, for example. The FPA technique measures the molecular orientation and mobility using polarized light and fluorescent tracer. […] A compound that antagonizes the interaction between the fluoresceinated peptidomimetic macrocycle and an acceptor protein will be detected in a competitive binding FPA experiment.
For example, putative antagonist compounds (1 nM to 1 mM) and a fluoresceinated peptidomimetic macrocycle (25 nM) are incubated with the acceptor protein (50 nM) in binding buffer (140 mM NaCl, 50 mM Tris-HCL, pH 7.4) for 30 minutes at room temperature. Antagonist binding activity is measured, for example, by fluorescence polarization on a luminescence spectrophotometer (e.g. Perkin-Elmer LS50B). Kd values may be determined by nonlinear regression analysis using, for example, Graphpad Prism software (GraphPad Software, Inc., San Diego, Calif.).

Mcl-1, sequence (Q07820 whole entry, species assumed): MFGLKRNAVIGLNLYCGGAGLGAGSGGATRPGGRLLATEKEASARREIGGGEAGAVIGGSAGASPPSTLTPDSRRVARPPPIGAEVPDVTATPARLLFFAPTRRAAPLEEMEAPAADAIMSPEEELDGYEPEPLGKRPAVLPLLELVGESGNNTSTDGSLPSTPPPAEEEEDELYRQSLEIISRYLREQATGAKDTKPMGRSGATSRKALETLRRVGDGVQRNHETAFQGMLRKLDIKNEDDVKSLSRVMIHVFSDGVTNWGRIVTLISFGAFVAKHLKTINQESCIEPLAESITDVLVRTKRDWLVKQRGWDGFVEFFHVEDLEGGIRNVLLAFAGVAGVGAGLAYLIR
Bcl-2, sequence (P10415 whole entry, species assumed): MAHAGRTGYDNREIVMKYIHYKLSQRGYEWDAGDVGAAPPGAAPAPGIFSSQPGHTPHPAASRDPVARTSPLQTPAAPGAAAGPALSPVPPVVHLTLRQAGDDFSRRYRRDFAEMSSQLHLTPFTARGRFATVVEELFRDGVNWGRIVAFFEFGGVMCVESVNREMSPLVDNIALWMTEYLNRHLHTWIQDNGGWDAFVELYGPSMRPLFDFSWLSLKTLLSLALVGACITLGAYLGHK

SMILES	Ki (Mcl-1) [nM]	Ki (Bcl-2) [nM]
CC[C@H](C)[C@H](NC(C)=O)C(=O)N[C@@H](Cc1c[nH]c2ccccc12)C(=O)N[C@@H](Cc1ccc(C(C)(C)C)cc1)C(=O)N[C@@H](C)C(=O)N[C@@H](CCC(N)=O)C(=O)N[C@@H](C)C(=O)N[C@@H](CC(C)C)C(=O)N[C@@H](CCCNC(=N)N)C(=O)N[C@]1(C)CCCCCCC=CCCC[C@@](C)(C(=O)N[C@@H](Cc2ccc(O)cc2)C(=O)N[C@@H](Cc2ccc(O)cc2)C(=O)N[C@@H](C)C(N)=O)NC(=O)[C@H](CC(N)=O)NC(=O)[C@H](Cc2ccccc2)NC(=O)[C@H](C)NC(=O)[C@H](CC(=O)O)NC(=O)CNC(=O)[C@H]([C@@H](C)CC)NC1=O [compound 1684] (Ac-IW[Phe(4-tBu)]AQALR[R8]IGDAFN[S5]YYA-NH2; staple 9-16)		> 1000
CC[C@H](C)[C@H](NC(C)=O)C(=O)N[C@@H](Cc1c[nH]c2ccccc12)C(=O)N[C@H](C(=O)N[C@@H](C)C(=O)N[C@@H](C)C(=O)N[C@@H](C)C(=O)N[C@@H](CC(C)C)C(=O)N[C@@H](CCCNC(=N)N)C(=O)N[C@]1(C)CCCCCCC=CCCC[C@@](C)(C(=O)N[C@@H](Cc2ccc(O)cc2)C(=O)N[C@@H](Cc2ccc(O)cc2)C(=O)N[C@@H](C)C(N)=O)NC(=O)[C@H](CC(N)=O)NC(=O)[C@H](Cc2ccccc2)NC(=O)[C@H](C)NC(=O)[C@H](CC(=O)O)NC(=O)[C@H](C(C)C)NC(=O)[C@H]([C@@H](C)CC)NC1=O)[C@@H](C)CC [compound 1739] (Ac-IWIAAALR[R8]IVDAFN[S5]YYA-NH2; staple 9-16)		120
CC[C@H](C)[C@H](NC(C)=O)C(=O)N[C@@H](Cc1c[nH]c2ccccc12)C(=O)N[C@H](C(=O)N[C@@H](C)C(=O)N[C@@H](CCC(N)=O)C(=O)N[C@@H](CCC(=O)O)C(=O)N[C@@H](CC(C)C)C(=O)N[C@@H](CCCNC(=N)N)C(=O)N[C@]1(C)CCCCCCC=CCCC[C@@](C)(C(=O)N[C@@H](Cc2ccc(O)cc2)C(=O)N[C@@H](Cc2ccc(O)cc2)C(=O)N[C@@H](C)C(=O)N[C@@H](CCCNC(=N)N)C(=O)N[C@@H](CCCNC(=N)N)C(N)=O)NC(=O)[C@H](CC(N)=O)NC(=O)[C@H](Cc2ccccc2)NC(=O)[C@H](CCC(=O)O)NC(=O)[C@H](CC(=O)O)NC(=O)CNC(=O)[C@H]([C@@H](C)CC)NC1=O)[C@@H](C)CC [compound 1629]		23.5
CC[C@H](C)[C@H](NC(C)=O)C(=O)N[C@@H](Cc1c[nH]c2ccccc12)C(=O)N[C@H](C(=O)N[C@@H](C)C(=O)N[C@@H](CCC(N)=O)C(=O)N[C@@H](C)C(=O)N[C@@H](CC(C)C)C(=O)N[C@@H](CCCNC(N)=O)C(=O)N[C@]1(C)CCCCCCC=CCCC[C@@](C)(C(=O)N[C@@H](Cc2ccc(O)cc2)C(=O)N[C@@H](Cc2ccc(O)cc2)C(=O)N[C@@H](C)C(N)=O)NC(=O)[C@H](CC(N)=O)NC(=O)[C@H](Cc2ccccc2)NC(=O)[C@H](C)NC(=O)[C@H](CC(=O)O)NC(=O)CNC(=O)[C@H]([C@@H](C)CC)NC1=O)[C@@H](C)CC [compound 1655] (Ac-IWIAQAL[Cit][R8]IGDAFN[S5]YYA-NH2; staple 9-16)	7.5	212
CC[C@H](C)[C@H](NC(C)=O)C(=O)N[C@@H](Cc1c[nH]c2ccccc12)C(=O)N[C@H](C(=O)N[C@@H](C)C(=O)N[C@@H](CCC(N)=O)C(=O)N[C@@H](C)C(=O)N[C@@H](CC(C)C)C(=O)N[C@@H](CCCNC(=N)N)C(=O)N[C@]1(C)CCCCCCC=CCCC[C@@](C)(C(=O)N[C@@H](Cc2ccc(O)cc2)C(=O)N[C@@H](Cc2ccc(O)cc2)C(=O)N[C@@H](C)C(N)=O)NC(=O)[C@H](CC(N)=O)NC(=O)[C@H](Cc2ccccc2)NC(=O)[C@H](C)NC(=O)[C@H](CC(=O)O)NC(=O)CNC(=O)[C@H]([C@@H](C)CC)NC1=O)C1CCCCC1 [compound 1713] (Ac-IW[Chg]AQALR[R8]IGDAFN[S5]YYA-NH2; staple 9-16)	4.6	38.9
CC[C@H](C)[C@H](NC(C)=O)C(=O)N[C@@H](Cc1c[nH]c2ccccc12)C(=O)N[C@H](C(=O)N[C@@H](C)C(=O)N[C@@H](CCC(N)=O)C(=O)N[C@@H](C)C(=O)N[C@@H](CC(C)C)C(=O)N[C@@H](CCCNC(=N)N)C(=O)N[C@]1(C)CCCCCCC=CCCC[C@@](C)(C(=O)N[C@@H](Cc2ccc(O)cc2)C(=O)N[C@@H](Cc2ccc(O)cc2)C(=O)N[C@@H](C)C(N)=O)NC(=O)[C@H](CC(N)=O)NC(=O)[C@H](CCc2ccccc2)NC(=O)[C@H](C)NC(=O)[C@H](CC(=O)O)NC(=O)CNC(=O)[C@H]([C@@H](C)CC)NC1=O)[C@@H](C)CC [compound 1743] (Ac-IWIAQALR[R8]IGDA[hPhe]N[S5]YYA-NH2; staple 9-16)	2.7	38.9
CC[C@H](C)[C@H](NC(C)=O)C(=O)N[C@@H](Cc1c[nH]c2ccccc12)C(=O)N[C@H](C(=O)N[C@@H](C)C(=O)N[C@@H](CCC(N)=O)C(=O)N[C@@H](C)C(=O)N[C@H](C(=O)N[C@@H](CCCNC(=N)N)C(=O)N[C@]1(C)CCCCCC/C=C\CCC[C@@](C)(C(=O)N[C@@H](Cc2ccc(O)cc2)C(=O)N[C@@H](Cc2ccc(O)cc2)C(=O)N[C@@H](C)C(N)=O)NC(=O)[C@H](CC(N)=O)NC(=O)[C@H](Cc2ccccc2)NC(=O)[C@H](C)NC(=O)[C@H](CC(=O)O)NC(=O)CNC(=O)[C@H]([C@@H](C)CC)NC1=O)C1Cc2ccccc2C1)[C@@H](C)CC [compound 1693] (Ac-IWIAQA[Igl]R[R8]IGDAFN[S5]YYA-NH2; staple (Z) 9-16)		> 1000

Further lines, results first:

Ki (Mcl-1) [nM]	Ki (Bcl-2) [nM]	SMILES
> 1000	> 1000	CC[C@H](C)[C@H](NC(C)=O)C(=O)N[C@@H](Cc1c[nH]c2ccccc12)C(=O)N[C@H](C(=O)N[C@@H](C)C(=O)N[C@@H](CCC(N)=O)C(=O)N[C@@H](C)C(=O)N[C@@H](C)C(=O)N[C@@H](CCCNC(N)=O)C(=O)N[C@]1(C)CCCCCCC=CCCC[C@@](C)(C(=O)N[C@@H](Cc2ccc(O)cc2)C(=O)N[C@@H](Cc2ccc(O)cc2)C(=O)N[C@@H](C)C(N)=O)NC(=O)[C@H](CC(N)=O)NC(=O)[C@H](Cc2ccccc2)NC(=O)[C@H](C)NC(=O)[C@H](CC(=O)O)NC(=O)CNC(=O)[C@H]([C@@H](C)CC)NC1=O)[C@@H](C)CC [compound 1771] (Ac-IWIAQAA[Cit][R8]IGDAFN[S5]YYA-NH2; staple 9-16)
	125	CC[C@H](C)[C@H](NC(C)=O)C(=O)N[C@@H](Cc1c[nH]c2ccccc12)C(=O)N[C@H](C(=O)N[C@@H](C)C(=O)N[C@@H](C)C(=O)N[C@@H](C)C(=O)N[C@@H](CC(C)C)C(=O)N[C@@H](CCCNC(=N)N)C(=O)N[C@]1(C)CCCCCCC=CCCC[C@@](C)(C(=O)N[C@@H](CC(C)C)C(=O)N[C@@H](Cc2ccc(O)cc2)C(=O)N[C@@H](C)C(N)=O)NC(=O)[C@H](CC(N)=O)NC(=O)[C@H](Cc2ccccc2)NC(=O)[C@H](C)NC(=O)[C@H](CC(=O)O)NC(=O)CNC(=O)[C@H]([C@@H](C)CC)NC1=O)[C@@H](C)CC [compound 1753] (Ac-IWIAAALR[R8]IGDAFN[S5]LYA-NH2; staple 9-16)
8	30.7	CC[C@H](C)[C@H](NC(C)=O)C(=O)N[C@@H](Cc1c[nH]c2ccccc12)C(=O)N[C@H](C(=O)N[C@@H](C)C(=O)N[C@@H](CCC(N)=O)C(=O)N[C@@H](C)C(=O)N[C@@H](CC(C)C)C(=O)N[C@@H](CCCNC(=N)N)C(=O)N[C@]1(C)CCCCCCC=CCCC[C@@](C)(C(=O)N[C@@H](Cc2ccc(O)cc2)C(=O)N[C@@H](CCc2ccccc2)C(=O)N[C@@H](C)C(N)=O)NC(=O)[C@H](CC(N)=O)NC(=O)[C@H](Cc2ccccc2)NC(=O)[C@H](C)NC(=O)[C@H](CC(=O)O)NC(=O)CNC(=O)[C@H]([C@@H](C)CC)NC1=O)[C@@H](C)CC [compound 1757] (Ac-IWIAQALR[R8]IGDAFN[S5]Y[hPhe]A-NH2; staple 9-16)
1.8	30.7	CC[C@H](C)[C@H](NC(C)=O)C(=O)N[C@@H](Cc1c[nH]c2ccccc12)C(=O)N[C@H](C(=O)N[C@@H](C)C(=O)N[C@@H](C)C(=O)N[C@@H](C)C(=O)N[C@@H](CC(C)C)C(=O)N[C@@H](CCCNC(=N)N)C(=O)N[C@]1(C)CCCCCCC=CCCC[C@@](C)(C(=O)N[C@@H](Cc2ccc(O)cc2)C(=O)N[C@@H](Cc2ccc(O)cc2)C(=O)N[C@@H](C)C(N)=O)NC(=O)[C@H](CCC(=O)O)NC(=O)[C@H](Cc2ccccc2)NC(=O)[C@H](C)NC(=O)[C@H](CC(=O)O)NC(=O)CNC(=O)[C@H]([C@@H](C)CC)NC1=O)[C@@H](C)CC [compound 1749] (Ac-IWIAAALR[R8]IGDAFE[S5]YYA-NH2; staple 9-16)
	22	CC[C@H](C)[C@H](NC(C)=O)C(=O)N[C@]1(C)CCCCCCC=CCCCC2(CCCC=CCCCCCC[C@@](C)(C(=O)N[C@@H](Cc3ccc(O)cc3)C(=O)N[C@@H](Cc3ccc(O)cc3)C(=O)N[C@@H](C)C(N)=O)NC(=O)[C@H](CC(N)=O)NC(=O)[C@H](Cc3ccccc3)NC(=O)[C@H](CCC(=O)O)NC(=O)[C@H](CC(=O)O)NC(=O)CNC(=O)[C@H]([C@@H](C)CC)NC2=O)NC(=O)[C@H](CCCNC(=N)N)NC(=O)[C@H](CC(C)C)NC(=O)[C@H](C)NC(=O)[C@H](CCC(N)=O)NC(=O)[C@H](C)NC(=O)[C@H]([C@@H](C)CC)NC1=O (stereo partly drawn) [compound 1782]
